Experimental data as given in patent US9789191B2, “Aqueous drug delivery system” (SOLIXA TECHNOLOGIES, INC., priority 2010, dated 2017).

Test: Comparative accelerated storage study of ASA at 45° C. for 3 weeks (HPLC)
Format: physicochemical
Details: in distilled water, 143 mg ASA in 8 oz
Method: Accelerated storage studies were conducted to examine the stability of ASA in distilled water, ASA in acidified (1% citric acid) distilled water, and of a molecular inclusion complex of ASA-βCD (in distilled water). Duplicate samples of each treatment were made containing 143 mg of ASA in 8 oz of distilled water. For the treatment containing the ASA-βCD complex, a 2:1 ratio of βCD to ASA was used as described in part I of the prototype formulation procedure outlined above. The treatments were stored at 45° C. for 3 weeks to determine the rate of hydrolysis of ASA to its breakdown product salicylic acid. Analysis of degradation products was performed using an Agilent Technologies 1200 series HPLC with a PDA (photodiode array) detector, incorporating a Phenominex C18-2 column (25 cm×0.39 cm i.d., 5 μm particle size). Solvent system A) H2O, Acetonitrile, Phosphoric Acid (95.45:4.5:0.05), and B) H2O, Acetonitrile, Phosphoric Acid (49.95:50:0.05). Solvent B ramped from 10%-80% over 20 minutes. Stability was verified using peak area, which was used to determine the overall percentage of breakdown of ASA to salicylic acid. […] The sensory profile of the βCD-ASA solution was evaluated.

Compound: CC(=O)Oc1ccccc1C(=O)O [ASA, acetylsalicylic acid]
- breakdown of ASA to salicylic acid: nearly quantitative breakdown
